According to patent publication US7396837B2, “Antitumoral analogs of lamellarins” (Pharma Mar, S.A.U., priority 2002, dated 2008):
Like-named read-outs stand apart in the source and are kept apart here.

What was measured:
Type in all cases: cell-based
A-549 = experiment: SRB colorimetric cell growth inhibition assay, A-549; conditions: for GI50: GI=growth inhibition, read-out: GI50 A-549; for CC50: cell killing (cytotoxic effect), read-out: LC50 A-549; for IC (TGI): total growth inhibition (cytostatic effect), read-out: TGI A-549
Source text: (§1) The finality of these assays is to interrupt the growth of an “in vitro” tumor cell culture by means a continued exhibition of the cells to the sample to be testing.
(§2) A colorimetric type of assay, using sulforhodamine B (SRB) reaction has been adapted for a quantitative measurement of cell growth and viability (following the technique described by P. A. Skehan, et al., J. Natl. Cancer Inst. 1990, 82, 1107-1112).
(§3) This form of assay employs 96 well cell culture microplates of 9 mm diameter (T. Mosmann et al., J. of Immunological Methods 1983, 65, 55-63; G. T. Faircloth et al., J. of Tissue and Culture Methods 1988, 11, 201-205).
(§4) Most of the cell lines are obtained from American Type Culture Collection (ATCC) derived from different human cancer types.
(§5) The values for mean +/− SD of data from triplicate wells are calculated. Some parameters for cellular responses can be calculated: GI=growth inhibition, TGI=total growth inhibition (cytostatic effect) and LC=cell killing (cytotoxic effect).

SK-MEL-28 = experiment: SRB colorimetric cell growth inhibition assay, SK-MEL-28; conditions: for GI50: GI=growth inhibition, read-out: GI50 MEL-28; for CC50: cell killing (cytotoxic effect), read-out: LC50 MEL-28
Source text: as §1, §2, §3, §4, §5

HT-29 = experiment: SRB colorimetric cell growth inhibition assay, HT-29; conditions: for GI50: GI=growth inhibition, read-out: GI50 HT-29; for CC50: cell killing (cytotoxic effect), read-out: LC50 HT-29
Source text: as §1, §2, §3, §4, §5

LoVo = experiment: SRB colorimetric cell growth inhibition assay, LoVo; conditions: for GI50: GI=growth inhibition, read-out: GI50 LOVO; for CC50: cell killing (cytotoxic effect), read-out: LC50 LOVO
Source text: as §1, §2, §3, §4, §5

LoVo-Dox = experiment: SRB colorimetric cell growth inhibition assay, LoVo-Dox (MDR); conditions: LOVO-DOX; for GI50: GI=growth inhibition, read-out: GI50 LOVO-DOX; for CC50: cell killing (cytotoxic effect), read-out: LC50 LOVO-DOX
Source text: as §1, §2, §3, §4, §5

DU-145 = experiment: SRB colorimetric cell growth inhibition assay, DU-145; conditions: for GI50: GI=growth inhibition, read-out: GI50 DU-145; for CC50: cell killing (cytotoxic effect), read-out: LC50 DU-145
Source text: as §1, §2, §3, §4, §5

SK-BR-3 = experiment: SRB colorimetric cell growth inhibition assay, SK-BR-3; conditions: for GI50: GI=growth inhibition, read-out: GI50 SK-BR-3; for CC50: cell killing (cytotoxic effect), read-out: LC50 SK-BR-3
Source text: as §1, §2, §3, §4, §5

IGROV = experiment: SRB colorimetric cell growth inhibition assay, IGROV; conditions: IGROV; for GI50: GI=growth inhibition, read-out: GI50 IGROV; for CC50: cell killing (cytotoxic effect), read-out: LC50 IGROV
Source text: as §1, §2, §3, §4, §5

IGROV-ET = experiment: SRB colorimetric cell growth inhibition assay, IGROV-ET (ET-743 resistant); conditions: IGROV-ET; for GI50: GI=growth inhibition, read-out: GI50 IGROV-ET; for CC50: cell killing (cytotoxic effect), read-out: LC50 IGROV-ET
Source text: as §1, §2, §3, §4, §5

HeLa = experiment: SRB colorimetric cell growth inhibition assay, HeLa; conditions: Homo sapiens, HeLa; for GI50: GI=growth inhibition, read-out: GI50 HELA; for CC50: read-out: LC50 HELA; for IC (TGI): read-out: TGI HELA
Source text: as §1, §2, §3, §4, §5

HeLa-APL = experiment: SRB colorimetric cell growth inhibition assay, HeLa-APL (aplidine resistant); conditions: Homo sapiens; for GI50: read-out: GI50 HELA-APL; for CC50: read-out: LC50 HELA-APL; for IC (TGI): read-out: TGI HELA-APL
Source text: as §1, §2, §3, §4, §5

PANC-1 = experiment: SRB colorimetric cell growth inhibition assay, PANC-1; conditions: for GI50: GI=growth inhibition, read-out: GI50 PANC-1; for CC50: cell killing (cytotoxic effect), read-out: LC50 PANC-1
Source text: as §1, §2, §3, §4, §5

[1] = Homo sapiens, SK-MEL-28, MEL-28
[2] = total growth inhibition (cytostatic effect)

Which results are given for COc1cc(-c2c3c4cc(OC)c(OC(=O)CCC5CCCCC5)cc4oc(=O)c3n3ccc4cc(OC(=O)CCC5CCCCC5)c(OC)cc4c23)ccc1OC(=O)CCC1CCCCC1 [Compound 12]?
GI50 (A-549; Homo sapiens, A549, A-549): 1200 nM; CC50 (A-549; Homo sapiens, A549, A-549): 10.9 µM; IC (TGI) (A-549; Homo sapiens, A549, A-549): 6.64 µM; GI50 (SK-MEL-28; [1]): 1770 nM; CC50 (SK-MEL-28; [1]): 10.9 µM; IC (TGI) (SK-MEL-28; Homo sapiens, SK-MEL-28, MEL-28, total growth inhibition (cytostatic effect), read-out: TGI MEL-28): 5.98 µM; GI50 (HT-29; Homo sapiens, HT-29, HT-29): 81.1 nM; CC50 (HT-29; Homo sapiens, HT-29, HT-29): 10.9 µM; IC (TGI) (HT-29; Homo sapiens, HT-29, HT-29, total growth inhibition (cytostatic effect), read-out: TGI HT-29): 0.841 µM; GI50 (LoVo; Homo sapiens, LoVo): 1830 nM; CC50 (LoVo; Homo sapiens, LoVo): 10.9 µM; IC (TGI) (LoVo; Homo sapiens, LoVo, total growth inhibition (cytostatic effect), read-out: TGI LOVO): 7.41 µM; GI50 (LoVo-Dox; Homo sapiens): 10.9 µM; CC50 (LoVo-Dox; Homo sapiens): 10.9 µM; IC (TGI) (LoVo-Dox; Homo sapiens, total growth inhibition (cytostatic effect), read-out: TGI LOVO-DOX): 10.9 µM; GI50 (DU-145; Homo sapiens, DU-145, DU-145): 249 nM; CC50 (DU-145; Homo sapiens, DU-145, DU-145): 7.07 µM; IC (TGI) (DU-145; Homo sapiens, DU-145, DU-145, total growth inhibition (cytostatic effect), read-out: TGI DU-145): 1.43 µM; GI50 (SK-BR-3; Homo sapiens, SK-BR-3, SK-BR-3): 698 nM; CC50 (SK-BR-3; Homo sapiens, SK-BR-3, SK-BR-3): 10.9 µM; IC (TGI) (SK-BR-3; Homo sapiens, SK-BR-3, SK-BR-3, total growth inhibition (cytostatic effect), read-out: TGI SK-BR-3): 3.45 µM; GI50 (IGROV; Homo sapiens): 1420 nM; CC50 (IGROV; Homo sapiens): 8.01 µM; IC (TGI) (IGROV; Homo sapiens, total growth inhibition (cytostatic effect), read-out: TGI IGROV): 3.38 µM; GI50 (IGROV-ET; Homo sapiens): 10.9 µM; CC50 (IGROV-ET; Homo sapiens): 10.9 µM; IC (TGI) (IGROV-ET; Homo sapiens, total growth inhibition (cytostatic effect), read-out: TGI IGROV-ET): 10.9 µM; GI50 (HeLa): 1660 nM; CC50 (HeLa; cell killing (cytotoxic effect)): 10.9 µM; IC (TGI) (HeLa; [2]): 7.5 µM; GI50 (HeLa-APL; HELA-APL, GI=growth inhibition): 3.66 µM; CC50 (HeLa-APL; HELA-APL, cell killing (cytotoxic effect)): 10.9 µM; IC (TGI) (HeLa-APL; HELA-APL, total growth inhibition (cytostatic effect)): 10.9 µM; GI50 (PANC-1; Homo sapiens, PANC-1, PANC-1): 1620 nM; CC50 (PANC-1; Homo sapiens, PANC-1, PANC-1): 10.9 µM; IC (TGI) (PANC-1; Homo sapiens, PANC-1, PANC-1, total growth inhibition (cytostatic effect), read-out: TGI PANC-1): 8.94 µM

For COc1cc2ccn3c(c(-c4ccc(OC(=O)[C@@H](N)Cc5ccccc5)c(OC)c4)c4c5cc(OC)c(OC(=O)[C@@H](N)Cc6ccccc6)cc5oc(=O)c43)c2cc1OC [Compound 13], which GI50 (A-549; A-549) is on record?
Its GI50 is 906 nM.

And the CC50 (A-549; A-549)?
Its CC50 is 12.4 µM.

And the IC (TGI) (A-549; Homo sapiens, A549, A-549)?
Its IC (TGI) is 12.4 µM.

And the GI50 (SK-MEL-28; MEL-28)?
The GI50 was 3110 nM.

And the CC50 (SK-MEL-28; MEL-28)?
The CC50 was 12.4 µM.

What about the “TGI MEL-28” value (SK-MEL-28; MEL-28, total growth inhibition (cytostatic effect)) of the same compound?
Its value is 1.09E−05 Molar.

And the GI50 (HT-29; HT-29)?
The GI50 was 3220 nM.

And the CC50 (HT-29; HT-29)?
The CC50 was 12.4 µM.

What about the “TGI HT-29” value (HT-29; HT-29, total growth inhibition (cytostatic effect)) of the same compound?
The value was 6.39E−06 Molar.

And the GI50 (LoVo; LOVO)?
Its GI50 is 754 nM.

What about the CC50 (LoVo; LOVO) of the same compound?
Its CC50 is 9.02 µM.

And the “TGI LOVO” value (LoVo; LOVO, total growth inhibition (cytostatic effect))?
The value was 2.35E−06 Molar.

And the GI50 (LoVo-Dox)?
The GI50 was 0.675 µM.

And the CC50 (LoVo-Dox)?
Its CC50 is 12.4 µM.

And the “TGI LOVO-DOX” value (LoVo-Dox; [2])?
Its value is 3.42E−06 Molar.

And the CC50 (DU-145; DU-145)?
The CC50 was 12.4 µM.

And the “TGI DU-145” value (DU-145; DU-145, total growth inhibition (cytostatic effect))?
The value was 3.64E−06 Molar.

And the GI50 (DU-145; Homo sapiens, DU-145, DU-145)?
The GI50 was 832 nM.

What about the GI50 (SK-BR-3; SK-BR-3) of the same compound?
The GI50 was 45.4 nM.

And the CC50 (SK-BR-3; SK-BR-3)?
The CC50 was 10.2 µM.

And the “TGI SK-BR-3” value (SK-BR-3; SK-BR-3, total growth inhibition (cytostatic effect))?
Its value is 1.13E−07 Molar.

And the GI50 (IGROV; Homo sapiens)?
Its GI50 is 1290 nM.

And the CC50 (IGROV)?
Its CC50 is 12.4 µM.

And the “TGI IGROV” value (IGROV; [2])?
Its value is 4.79E−06 Molar.

What about the GI50 (IGROV-ET; Homo sapiens) of the same compound?
The GI50 was 1.96 µM.

And the CC50 (IGROV-ET)?
Its CC50 is 12.4 µM.

And the “TGI IGROV-ET” value (IGROV-ET; [2])?
Its value is 7.86E−06 Molar.

What about the CC50 (HeLa) of the same compound?
Its CC50 is 12.4 µM.

What about the IC (TGI) (HeLa) of the same compound?
Its IC (TGI) is 9.63 µM.

What about the GI50 (HeLa) of the same compound?
The GI50 was 1830 nM.

What about the GI50 (HeLa-APL) of the same compound?
Its GI50 is 2.6 µM.

What about the CC50 (HeLa-APL) of the same compound?
Its CC50 is 12.4 µM.

And the IC (TGI) (HeLa-APL)?
Its IC (TGI) is 12.1 µM.

What about the GI50 (PANC-1; PANC-1) of the same compound?
The GI50 was 2430 nM.

And the CC50 (PANC-1; PANC-1)?
The CC50 was 12.4 µM.

And the “TGI PANC-1” value (PANC-1; PANC-1, total growth inhibition (cytostatic effect))?
The value was 1.24E−05 Molar.
